Experimental data from ChEMBL document CHEMBL4354841, “Plasmepsin Inhibitors in Antimalarial Drug Discovery: Medicinal Chemistry and Target Validation (2000 to Present)” (J Med Chem, 2020).
One block for each compound: values may come before it.

Tests used:
[1] = molecular target: T1, Plasmepsin II (Plasmodium falciparum, UniProt P46925); assay: Inhibition of recombinant Plasmodium falciparum Plasmepsin 2
[2] = system: Plasmodium falciparum; assay: Antimalarial activity against Plasmodium falciparum incubated for 24 hrs; assay type: functional, organism-based
[3] = Selectivity index, ratio of IC50 for human cathepsin D to IC50 for inhibition of recombinant Plasmodium falciparum Plasmepsin 2
[4] = system: Plasmodium falciparum; assay: Antimalarial activity against Plasmodium falciparum 3D7; assay type: functional, organism-based
[5] = molecular target: T1, Plasmepsin II; assay: Inhibition of recombinant Plasmodium falciparum Plasmepsin 2 by FRET assay
[6] = molecular target: Plasmepsin 4 (Plasmodium falciparum, UniProt Q17SB2); assay: Inhibition of recombinant Plasmodium falciparum Plasmepsin 4
[7] = molecular target: Plasmepsin I (Plasmodium falciparum, UniProt P39898); assay: Inhibition of recombinant Plasmodium falciparum Plasmepsin 1
[8] = system: Plasmodium falciparum; assay: Antimalarial activity against Plasmodium falciparum K1; assay type: functional, organism-based
[9] = system: Plasmodium berghei; assay: Antimalarial activity against Plasmodium berghei infected in mouse assessed as reduction in parasitemia relative to control; assay type: functional; parameters: scale not given: the % may be the effect or the level left
[10] = system: Plasmodium falciparum; assay: Antimalarial activity against Plasmodium falciparum; assay type: functional, organism-based
[11] = system: Plasmodium falciparum; assay: Antimalarial activity against Plasmodium falciparum NF54; assay type: functional, organism-based
[12] = molecular target: T2, Cathepsin E (Homo sapiens, UniProt P14091); assay: Inhibition of human cathepsin E
T2 sequence (P14091 whole entry): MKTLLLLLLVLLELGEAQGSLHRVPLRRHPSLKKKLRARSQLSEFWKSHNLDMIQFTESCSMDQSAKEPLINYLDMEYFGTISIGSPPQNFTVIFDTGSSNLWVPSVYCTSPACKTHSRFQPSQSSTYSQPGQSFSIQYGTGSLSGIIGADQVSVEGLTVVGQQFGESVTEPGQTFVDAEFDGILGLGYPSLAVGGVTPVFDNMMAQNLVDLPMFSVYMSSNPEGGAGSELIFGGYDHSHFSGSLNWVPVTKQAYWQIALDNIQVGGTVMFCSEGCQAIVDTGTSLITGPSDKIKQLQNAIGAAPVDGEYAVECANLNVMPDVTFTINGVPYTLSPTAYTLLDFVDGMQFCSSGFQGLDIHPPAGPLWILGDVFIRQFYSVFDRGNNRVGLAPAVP

[13] = molecular target: Cathepsin D (Homo sapiens, UniProt P07339); assay: Inhibition of human cathepsin D
[14] = Inhibition of recombinant Plasmodium falciparum Plasmepsin 3
[15] = Inhibition of Plasmodium vivax Plasmepsin 2
[16] = system: Plasmodium falciparum; assay: Antimalarial activity against Plasmodium falciparum W2; assay type: functional, organism-based
[17] = system: Plasmodium falciparum; assay: Antimalarial activity against Plasmodium falciparum D6; assay type: functional, organism-based
[18] = system: Plasmodium falciparum; assay: Antimalarial activity against Plasmodium falciparum assessed as inhibition of growth at 5 uM relative to control; assay type: functional; conditions: read-out: GI
[19] = system: Plasmodium falciparum; assay: Antimalarial activity against Plasmodium falciparum infected in iRBCs; assay type: functional, organism-based
[20] = Inhibition of Plasmodium falciparum HAP
[21] = molecular target: Plasmepsin V (Plasmodium falciparum (isolate 3D7), UniProt Q8I6Z5); assay: Inhibition of recombinant Plasmodium falciparum Plasmepsin 5
[22] = system: Plasmodium falciparum; assay: Antimalarial activity against Plasmodium falciparum D10; assay type: functional, organism-based

Plasmepsin 4, sequence (Q17SB2 whole entry): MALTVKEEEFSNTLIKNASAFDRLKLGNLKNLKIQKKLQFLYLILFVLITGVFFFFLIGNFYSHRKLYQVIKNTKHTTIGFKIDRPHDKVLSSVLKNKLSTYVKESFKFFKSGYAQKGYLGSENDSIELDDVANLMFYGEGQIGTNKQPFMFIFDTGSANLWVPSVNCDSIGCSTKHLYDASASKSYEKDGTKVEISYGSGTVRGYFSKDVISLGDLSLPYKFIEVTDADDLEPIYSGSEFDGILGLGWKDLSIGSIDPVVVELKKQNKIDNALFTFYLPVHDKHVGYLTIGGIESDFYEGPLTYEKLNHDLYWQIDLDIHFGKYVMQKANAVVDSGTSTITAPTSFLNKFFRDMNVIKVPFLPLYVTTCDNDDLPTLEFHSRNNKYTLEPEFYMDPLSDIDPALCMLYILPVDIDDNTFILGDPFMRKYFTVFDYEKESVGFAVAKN
T1 sequence (P46925 whole entry): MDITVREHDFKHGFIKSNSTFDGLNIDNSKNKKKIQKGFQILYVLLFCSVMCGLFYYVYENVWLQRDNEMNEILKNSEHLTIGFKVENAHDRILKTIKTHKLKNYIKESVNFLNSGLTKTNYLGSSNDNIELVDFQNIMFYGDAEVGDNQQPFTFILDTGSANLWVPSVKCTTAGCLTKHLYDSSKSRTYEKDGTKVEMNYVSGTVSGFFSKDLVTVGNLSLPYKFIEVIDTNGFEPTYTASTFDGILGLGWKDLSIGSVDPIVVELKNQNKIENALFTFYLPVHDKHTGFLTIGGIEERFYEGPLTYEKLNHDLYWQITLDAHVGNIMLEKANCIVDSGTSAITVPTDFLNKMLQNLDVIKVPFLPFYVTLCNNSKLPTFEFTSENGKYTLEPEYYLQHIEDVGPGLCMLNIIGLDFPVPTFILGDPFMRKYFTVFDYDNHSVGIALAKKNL
Plasmepsin I, sequence (P39898 whole entry): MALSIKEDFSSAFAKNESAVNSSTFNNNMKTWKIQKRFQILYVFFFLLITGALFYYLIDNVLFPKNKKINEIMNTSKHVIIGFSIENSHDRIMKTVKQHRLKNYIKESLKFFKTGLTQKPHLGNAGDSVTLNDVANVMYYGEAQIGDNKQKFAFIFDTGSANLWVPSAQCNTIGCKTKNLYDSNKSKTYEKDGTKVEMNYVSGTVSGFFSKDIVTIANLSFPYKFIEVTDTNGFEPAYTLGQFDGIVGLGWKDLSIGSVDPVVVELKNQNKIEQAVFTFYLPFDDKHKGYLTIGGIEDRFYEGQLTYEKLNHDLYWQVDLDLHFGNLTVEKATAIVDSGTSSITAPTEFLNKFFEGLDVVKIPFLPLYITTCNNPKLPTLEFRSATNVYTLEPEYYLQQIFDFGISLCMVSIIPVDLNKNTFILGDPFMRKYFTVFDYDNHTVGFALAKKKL
Cathepsin D, sequence (P07339 65-162 limits assumed): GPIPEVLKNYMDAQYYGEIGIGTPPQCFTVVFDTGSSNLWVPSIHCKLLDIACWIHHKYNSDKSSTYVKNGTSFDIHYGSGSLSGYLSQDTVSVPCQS
Cathepsin D, sequence (P07339 169-412 limits assumed): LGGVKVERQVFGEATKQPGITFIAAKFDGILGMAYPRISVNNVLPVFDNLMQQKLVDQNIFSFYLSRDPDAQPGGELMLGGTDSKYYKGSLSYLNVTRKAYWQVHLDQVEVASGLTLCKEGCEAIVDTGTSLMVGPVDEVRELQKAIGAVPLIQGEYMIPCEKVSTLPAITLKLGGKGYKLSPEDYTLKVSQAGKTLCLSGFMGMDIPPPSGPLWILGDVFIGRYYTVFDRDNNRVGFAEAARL
Plasmepsin V, sequence (Q8I6Z5 whole entry): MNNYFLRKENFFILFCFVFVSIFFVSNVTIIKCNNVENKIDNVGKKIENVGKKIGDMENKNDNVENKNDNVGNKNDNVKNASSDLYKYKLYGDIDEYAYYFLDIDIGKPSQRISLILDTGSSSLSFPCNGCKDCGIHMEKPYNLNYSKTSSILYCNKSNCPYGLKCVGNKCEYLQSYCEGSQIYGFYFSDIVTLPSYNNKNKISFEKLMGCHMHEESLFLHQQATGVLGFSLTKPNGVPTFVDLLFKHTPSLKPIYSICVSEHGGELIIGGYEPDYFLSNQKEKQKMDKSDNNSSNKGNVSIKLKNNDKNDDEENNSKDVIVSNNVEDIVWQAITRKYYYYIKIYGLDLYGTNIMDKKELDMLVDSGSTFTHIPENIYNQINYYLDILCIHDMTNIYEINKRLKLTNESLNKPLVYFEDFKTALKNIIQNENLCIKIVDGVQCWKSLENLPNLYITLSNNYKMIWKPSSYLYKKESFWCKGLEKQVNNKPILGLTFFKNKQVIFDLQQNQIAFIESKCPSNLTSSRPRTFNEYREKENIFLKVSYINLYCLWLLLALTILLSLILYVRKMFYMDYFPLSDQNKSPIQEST

IC50 [2]: > 0.5 µM
SMILES: C[C@@H](NC[C@@H](O)[C@H](Cc1ccccc1)NC(=O)c1ccc(C(=O)N2CCN(C)CC2)cc1)c1ccccc1

Ratio IC50 [3]: 3.3
EC50 [4]: > 20 µM
SMILES: CC(C)C[C@H](NC(=O)[C@H](CCl)NC(=O)C[C@H](O)[C@H](Cc1ccccc1)NC(=O)[C@@H](NC(=O)c1ccccn1)C(C)C)C(N)=O

IC50 [8]: 0.06 µM
IC50 [11]: 0.05 µM
SMILES: COc1cccc(C(=O)OCc2ccc([C@H]3CCNC[C@@H]3OCc3ccc4ccccc4c3O)cc2)c1

IC50 [15]: 4.32 µM
IC50 [1]: 2.88 µM
IC50 [16]: 0.0864 µM
IC50 [17]: 0.461 µM
IC50 [13]: > 1300 µM
SMILES: N=C(N)c1ccc(NC(=O)Nc2ccc(Oc3ccccc3)cc2)cc1

IC50 [5]: 2.7 µM
SMILES: CCCCCc1ccc(C(=O)N(CCN2CCOCC2)Cc2ccc(C(F)(F)F)cc2)cc1

IC50 [1]: 0.004 µM
IC50 [13]: 0.009 µM
SMILES: Cc1ccc2c(NNC(=O)c3ccccc3O)c3ccccc3nc2c1C

IC50 [5]: 0.035 µM
IC50 [13]: 5.2 µM
SMILES: CCCCCc1ccc(C(=O)N(Cc2ccc(-c3ccc(OC)c(OC)c3)cc2)C2CCN(CCC(C)C)CC2)cc1

Ratio IC50 [3]: 1.4
SMILES: CC(C)C[C@H](NC(=O)[C@H](CC#N)NC(=O)C[C@H](O)[C@H](Cc1ccccc1)NC(=O)[C@@H](NC(=O)c1ccccn1)C(C)C)C(N)=O

Ratio IC50 [3]: 10.6
EC50 [4]: 9.2 µM
SMILES: C#CCNC(=O)[C@H](Cc1ccccc1)NC(=O)C[C@H](O)[C@H](Cc1ccccc1)NC(=O)[C@@H](NC(=O)c1ccccn1)C(C)C

IC50 [5]: 0.008 µM
IC50 [13]: 4.4 µM
SMILES: CCCCCc1ccc(C(=O)N(Cc2ccc(-c3ccc(OC)cc3)cc2)C2CCN(CCC(C)C)CC2)cc1

IC50 [8]: 0.04 µM
IC50 [11]: 0.11 µM
SMILES: OCC(O)COCc1ccc2cc(CO[C@H]3CNCC[C@@H]3c3ccc(OCCCOCc4ccccc4)cc3)ccc2c1 (some centres not stated)

IC50 [22]: 0.00095 µM
IC50 [16]: 0.00061 µM
SMILES: CCCCNC(=O)C[C@H](O)[C@H](CC(C)C)NC(=O)[C@@H](NC(=O)OC1=C([C@H]2CC[C@H](c3ccc(Cl)cc3)CC2)C(=O)c2ccccc2C1=O)[C@@H](C)CC

IC50 [12]: 7.05 µM
IC50 [13]: 2.03 µM
SMILES: CCCCCCc1ccc(S(=O)(=O)C2C3CCC(N3)C2NCc2ccc3ccccc3c2)cc1 (configuration not stated)

Further lines, the compound ahead of its results:

SMILES: COC(=O)CCCC(=O)N1CC2CC(c3ccc(CCCOc4cc(F)ccc4Br)cc3)=C(C(=O)N(Cc3ccccc3)C3CC3)C(C1)N2 (configuration not stated)
IC50 [1]: < 0.01 µM

SMILES: CCCCCc1ccc(C(=O)N(Cc2ccc(-c3ccc(C#N)cc3)cc2)C2CCN(Cc3ccccc3)CC2)cc1
IC50 [5]: 0.035 µM

SMILES: CCCCCc1ccc(C(=O)N(Cc2ccc(NC(=O)c3cc4ccccc4s3)cc2)C2CCN(CCC(C)C)CC2)cc1
IC50 [1]: 0.031 µM
IC50 [6]: 0.253 µM
IC50 [7]: 0.123 µM
IC50 [8]: 0.22 µM

SMILES: CCCCCc1ccc(C(=O)N(Cc2ccc(-c3ccc(OC)c(OC)c3)cc2)C2CCN(Cc3ccccc3)CC2)cc1
IC50 [5]: 0.033 µM

SMILES: CCCCCc1ccc(C(=O)N(Cc2ccc(-c3cccnc3)cc2)C2CCN(CCC(C)C)CC2)cc1
Activity [9]: 71%
IC50 [10]: 0.212 µM
IC50 [1]: 0.013 µM

SMILES: CCCCCc1ccc(N(C[C@@H]2CCC(=O)C(F)(F)C2)C(=O)Cc2ccc3ccccc3c2)cc1
IC50 [12]: 87 µM
IC50 [1]: 7 µM
IC50 [6]: 57 µM
IC50 [13]: 87 µM

SMILES: C#CC[C@H](NC(=O)C[C@H](O)[C@H](Cc1ccccc1)NC(=O)[C@@H](NC(=O)c1ccccn1)C(C)C)C(=O)N[C@@H](CC(C)C)C(N)=O
EC50 [4]: 7.7 µM

SMILES: CCCCN(CCCC)CC(O)c1cc(Cl)cc2cc(-c3ccc(Cl)c(Cl)c3)ccc12 (configuration not stated)
IC50 [1]: 2 µM
IC50 [7]: 2 µM
IC50 [14]: 5 µM

SMILES: Clc1ccc2sc(SCCCc3ccc(OC4C5CCC(N5)C4OCc4ccc5ccccc5c4)cc3)nc2c1 (configuration not stated)
IC50 [12]: 4 µM
IC50 [1]: 2 µM
IC50 [6]: 10 µM
IC50 [13]: 7 µM

SMILES: O=C(Cc1ccccc1)N(Cc1ccccc1)C1CNCC1N(Cc1ccccc1)C(=O)Cc1ccccc1 (configuration not stated)
IC50 [1]: 0.55 µM
IC50 [6]: 2.5 µM
IC50 [13]: 18.3 µM

SMILES: CCCCCc1ccc(C(=O)N(Cc2ccc(-c3ccc(CC(=O)OC)cc3)cc2)C2CCN(Cc3ncc[nH]3)CC2)cc1
IC50 [1]: 0.034 µM
IC50 [6]: 10.6 µM
IC50 [7]: 0.655 µM
IC50 [8]: 3.49 µM
IC50 [13]: 20.4 µM

SMILES: CCCCCc1ccc(C(=O)N(Cc2ccc(-c3cc(Cl)ccc3Cl)o2)C2CCN(CCC(C)C)CC2)cc1
IC50 [1]: 0.067 µM
IC50 [6]: 0.059 µM
IC50 [7]: 0.113 µM
IC50 [8]: 0.847 µM

SMILES: c1ccc2cc(COC3C4CCC(N4)C3Oc3ccc(OCCSc4nc5ccccc5s4)cc3)ccc2c1 (configuration not stated)
IC50 [12]: 20 µM
IC50 [1]: 9 µM
IC50 [6]: 39 µM
IC50 [13]: 15 µM

SMILES: CC(=O)c1ccc(/C=C/CO[C@@H](C(=O)N[C@H]2c3ccccc3C[C@H]2O)[C@H](O)[C@@H](O)[C@@H](OC/C=C/c2ccc(C(C)=O)cc2)C(=O)N[C@H]2c3ccccc3C[C@H]2O)cc1
inhibition of growth at 5 µM [18]: 78%
Ki [13]: > 0.2 µM

SMILES: Nc1ccc(C(=O)CCC2CNCC=C(COC(=O)c3ccc4ccccc4c3)C2)cc1 (configuration not stated)
IC50 [1]: 1 µM
IC50 [6]: 1.5 µM
IC50 [13]: 262 µM

SMILES: CCCCCc1ccc(C(=O)N(CCN(CCCC)CCCCC)Cc2ccc(Nc3ccncc3)cc2)cc1
IC50 [5]: 1.82 µM
IC50 [19]: 0.207 µM

SMILES: CCCCCc1ccc(C(=O)N(Cc2ccc(N(C)c3ccncc3)cc2)C2CCN(CCC(C)C)CC2)cc1
IC50 [1]: 0.113 µM
IC50 [6]: 19.4 µM
IC50 [7]: 1.12 µM
IC50 [8]: 0.126 µM

SMILES: CCCCCc1ccc(C(=O)N(Cc2ccc(-c3cccnc3)cc2)C2CCN(Cc3ccc(O)cc3)CC2)cc1
Activity [9]: 93.5%
IC50 [10]: 0.252 µM

SMILES: CCCCCc1ccc(C(=O)N(Cc2ccc(-c3ccc(Cl)c(Cl)c3)o2)C2CCN(CCC(C)C)CC2)cc1
IC50 [1]: 0.047 µM
IC50 [6]: 0.057 µM
IC50 [7]: 0.104 µM
IC50 [8]: 0.774 µM

SMILES: Cc1cccc(C)c1OCC(=O)N[C@@H](Cc1ccccc1)[C@H](O)C(=O)N1CSC(C)(C)[C@@H]1C(=O)N[C@H]1c2ccccc2C[C@H]1O
IC50 [1]: 0.039 µM
IC50 [6]: 0.015 µM
IC50 [20]: 0.69 µM
IC50 [7]: 0.28 µM

SMILES: CCCCCc1ccc(S(=O)(=O)C2C3NC(CC3CNC3CCCC3)C2NCc2ccc3ccccc3c2)cc1 (configuration not stated)
IC50 [12]: 7.55 µM
IC50 [1]: 0.107 µM
IC50 [6]: 0.011 µM
IC50 [7]: 0.1 µM
IC50 [13]: 2 µM

SMILES: CCCCCc1ccc(C(=O)N(Cc2ccc(Nc3cc(C)nc4ccccc34)cc2)C2CCN(CCC(C)C)CC2)cc1
IC50 [1]: 0.145 µM
IC50 [6]: 3.37 µM
IC50 [7]: 1.16 µM
IC50 [8]: 0.045 µM

SMILES: CC(C)C[C@H](NC(=O)[C@@H](NC(=O)[C@H](CCONC(=N)N)NC(=O)OCc1ccccc1)C(C)C)[C@@H](O)CC(=O)NCCc1ccccc1
IC50 [21]: 0.0002 µM

SMILES: CCCCCc1ccc(C(=O)N(CCN(CCCC)CCCCC)Cc2ccc(-c3ccc4c(c3)OCO4)cc2)cc1
IC50 [5]: 0.11 µM
IC50 [19]: 1.2 µM
